Reference: patent publication US7531557B2, “Diaryl ethers as opioid receptor antagonists” (Eli Lilly and Company, priority 2002, dated 2009)
Structures can show the parent of a compound that is named as a salt.

Key:
Diet Induced Obese Rat = experiment: Indirect calorimetry assay (food consumption, energy balance); format: in vivo; conditions: for minimal effective dose: Rattus norvegicus, po, lowest dose with food consumption over 24 hours significantly different from vehicle, read-out: Inhibition of Feeding Diet Induced Obese Rat Minimum Effective Dose (MED); for Energy Balance Diet Induced Obese Rat: test dose 3 mg/kg, p.o., energy balance = caloric intake minus utilization
Procedure: Indirect Calorimetry Assay
Twenty-four-hour energy expenditure (EE) and respiratory quotient (RQ) were measured by indirect calorimetry using an open circuit calorimetry system (Oxymax, Columbus Instruments Int. Corp., USA). RQ is the ratio of the volume of CO2 produced (VCO2) to the volume of O2 consumed (VO2). EE was calculated as the product of calorific value of oxygen (CV) and VO2 per kilogram of body weight, where CV=3.815+1.232 (RQ). Total calories expended were calculated to determine daily fuel utilization. To calculate the proportion of protein, fat and carbohydrate that is used during that 24-hour period, we used Flatt's proposal (see, Flatt J P 1991 Assessment of daily and cumulative carbohydrate and fat balances in mice. J Nutr Biochem 2:193-202.) and formulae as well as other derived constants (see Elia M, Livesey G 1992 Energy expenditure and fuel selection in biological systems: the theory and practice of calculations based on indirect calorimetry and tracer methods. World Rev Nutr Diet 70:68-131.). Food consumption over the 24-hour period was also measured. […] Results obtained for a sample of compounds of the invention with the indirect calorimetry assay are shown below in Table 4.

[1] = test system: mu, delta and kappa receptors in rat striatum/nucleus accumbens; experiment: Ex-vivo receptor binding of 3H-diprenorphine in rat brain after oral dosing; conditions: 7 mg/kg p.o., 6 hours after administration, striatum/nucleus accumbens homogenate, versus vehicle
mu opioid receptor (MOR) = mu opioid receptor (MOR) (Homo sapiens, UniProt P35372); experiment: SPA-based GTP-γ-S binding assay, antagonist mode, mu; format: biochemical; conditions: antagonist assay against DAMGO 1 micromolar; Kb by Cheng-Prusoff equation; read-out: In Vitro Antagonism GTP-γ-S Kb Mu
Chain of mu opioid receptor (MOR) (P35372 whole entry): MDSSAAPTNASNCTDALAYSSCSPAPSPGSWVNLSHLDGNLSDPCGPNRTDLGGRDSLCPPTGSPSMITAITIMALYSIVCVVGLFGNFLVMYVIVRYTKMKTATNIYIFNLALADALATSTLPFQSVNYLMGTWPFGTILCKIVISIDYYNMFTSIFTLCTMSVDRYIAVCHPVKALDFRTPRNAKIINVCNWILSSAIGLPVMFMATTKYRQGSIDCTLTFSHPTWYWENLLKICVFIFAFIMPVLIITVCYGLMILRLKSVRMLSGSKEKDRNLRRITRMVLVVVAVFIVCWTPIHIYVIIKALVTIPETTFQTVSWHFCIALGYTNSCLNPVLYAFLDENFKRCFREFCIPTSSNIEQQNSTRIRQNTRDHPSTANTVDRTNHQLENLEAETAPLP
Procedure: (§1) An SPA—based GTP-γ-S assay format was developed based on previous opioid (Emmerson et al., J. Pharm Exp Ther 278, 1121, 1996; Horng et al., Society for Neuroscience Abstracts, 434.6, 2000) and muscarinic (DeLapp et al., JPET 289, 946, 1999) assay formats. Membranes were re-suspended in 20 mM HEPES, 100 mM NaCl, 5 mM MgCl2, 1 mM DTT, and 1 mM EDTA. Fifty (50) […] of GTP-γ-[35S], compound, membrane suspension (20 microgram/well), and wheat germ agglutinin coated SPA beads (1 mg/well) were added to clear bottom 96 well assay plates. GDP ([…]) was added to the membrane solution prior to addition to the assay plates. Plates were sealed and incubated for four hours at room temperature then placed in a refrigerator overnight to allow the beads to settle. Signal stability at 4° C. was determined to be >60 hours. Plates were warmed to room temperature and counted in a Wallac Microbeta scintillation counter. For antagonist assays, specific agonists were added at the following concentrations: (MOR) DAMGO 1 micromolar, (DOR) DPDPE 30 nM, (KOR) U69593 300 nM. Kb's were determined by Cheng-Prusoff equation (see Cheng and Prusoff, Biochem. Pharmacol. 22, 3099, 1973).

[2] = molecular target: kappa opioid receptor (KOR) (Homo sapiens, UniProt P41145); experiment: SPA-based GTP-γ-S binding assay, antagonist mode, kappa; format: biochemical; conditions: antagonist assay against U69593 300 nM; Kb by Cheng-Prusoff equation; read-out: In Vitro Antagonism GTP-γ-S Kb Kappa
Chain of kappa opioid receptor (KOR) (P41145 whole entry): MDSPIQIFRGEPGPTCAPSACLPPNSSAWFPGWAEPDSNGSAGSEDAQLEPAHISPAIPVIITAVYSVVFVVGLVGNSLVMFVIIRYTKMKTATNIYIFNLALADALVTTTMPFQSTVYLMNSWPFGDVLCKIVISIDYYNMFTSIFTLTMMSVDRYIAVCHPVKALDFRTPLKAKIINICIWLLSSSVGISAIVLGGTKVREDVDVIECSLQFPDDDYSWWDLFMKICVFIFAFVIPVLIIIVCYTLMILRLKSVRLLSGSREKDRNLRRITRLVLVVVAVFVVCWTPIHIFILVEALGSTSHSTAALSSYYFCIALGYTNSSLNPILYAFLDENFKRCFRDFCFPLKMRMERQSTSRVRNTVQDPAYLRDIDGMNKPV
Procedure: as §1

[3] = molecular target: delta opioid receptor (DOR) (Homo sapiens, UniProt P41143); experiment: SPA-based GTP-γ-S binding assay, antagonist mode, delta; format: biochemical; conditions: antagonist assay against DPDPE 30 nM; Kb by Cheng-Prusoff equation; read-out: In Vitro Antagonism GTP-γ-S Kb Delta
Chain of delta opioid receptor (DOR) (P41143 whole entry): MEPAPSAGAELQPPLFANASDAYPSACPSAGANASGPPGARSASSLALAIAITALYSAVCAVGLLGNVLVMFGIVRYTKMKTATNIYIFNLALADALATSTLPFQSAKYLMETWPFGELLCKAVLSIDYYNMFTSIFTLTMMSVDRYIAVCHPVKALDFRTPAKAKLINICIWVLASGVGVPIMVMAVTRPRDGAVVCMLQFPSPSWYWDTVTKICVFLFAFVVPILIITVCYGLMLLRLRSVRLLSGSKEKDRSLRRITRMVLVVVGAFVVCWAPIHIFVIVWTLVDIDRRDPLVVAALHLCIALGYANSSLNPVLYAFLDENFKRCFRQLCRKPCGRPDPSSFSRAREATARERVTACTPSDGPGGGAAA
Procedure: as §1

SMILES: NC(=O)c1ccc(Oc2ccc(CNCC3CCCCC3)cc2F)nc1
- melting point: 152 to 153 °C

SMILES: Cc1cc(CNCCC(C)C)ccc1Oc1ccc(C(N)=O)cn1 [Example 227, 6-[2-Methyl-4-(3-methyl-butylamino-methyl)-phenoxy]nicotinamide]
- minimal effective dose (Diet Induced Obese Rat): 0.3 mg/kg
- Energy Balance Diet Induced Obese Rat (Diet Induced Obese Rat): -68 kcal/kg/day
- Ex Vivo Binding [3H]-Diprenorphine % Inhibition of at 6 hours 7 mg/kg of test compound [1]: 55%

SMILES: CC(C)CCNCc1ccc(Oc2ccc(C(N)=O)cn2)c(F)c1 [Example 228, 6-[2-Fluoro-4-(3-methyl-butylamino-methyl)-phenoxy]nicotinamide]
- minimal effective dose (Diet Induced Obese Rat): 0.3 mg/kg
- Energy Balance Diet Induced Obese Rat (Diet Induced Obese Rat): -81 kcal/kg/day
- Ex Vivo Binding [3H]-Diprenorphine % Inhibition of at 6 hours 7 mg/kg of test compound [1]: >65%

SMILES: CC(C)CCNCc1ccc(Oc2ccc(C(N)=O)cn2)c(Cl)c1 [Example 229, 6-[2-Chloro-4-(3-methyl-butylamino-methyl)-phenoxy]nicotinamide]
- Ex Vivo Binding [3H]-Diprenorphine % Inhibition of at 6 hours 7 mg/kg of test compound [1]: 77%

SMILES: Cc1cc(CNCCC(C)(C)C)ccc1Oc1ccc(C(N)=O)cn1 [Example 238, 6-{4-[(3,3-Dimethyl-butylamino)-methyl]-2-methyl-phenoxy}-nicotinamide]
- Ex Vivo Binding [3H]-Diprenorphine % Inhibition of at 6 hours 7 mg/kg of test compound [1]: 59%

SMILES: CCCCNCc1ccc(Oc2ccc(C(N)=O)cn2)c(C)c1 [Example 240, 6-(4-Butylaminomethyl-2-methyl-phenoxy)-nicotinamide]
- Ex Vivo Binding [3H]-Diprenorphine % Inhibition of at 6 hours 7 mg/kg of test compound [1]: 38%

SMILES: Cc1cc(CNCCC(C)C)ccc1Oc1ccc(C(N)=O)cc1F [Example 246, 3-Fluoro-4-{2-methyl-4-[(3-methyl-butylamino)-methyl]-phenoxy}-benzamide]
- Ex Vivo Binding [3H]-Diprenorphine % Inhibition of at 6 hours 7 mg/kg of test compound [1]: 58%

SMILES: NC(=O)c1ccc(Oc2ccc(CNCCc3cccs3)cc2)nc1 [Example 253, 6-{4-[(2-Thiophen-2-yl-ethylamino)-methyl]-phenoxy}-nicotinamide]
- Kb (mu opioid receptor (MOR)): 68 pM
- Kb [2]: 355 pM
- Kb [3]: 708 pM
- minimal effective dose (Diet Induced Obese Rat): ≤ 3 mg/kg
- Energy Balance Diet Induced Obese Rat (Diet Induced Obese Rat): -19 kcal/kg/day
- Ex Vivo Binding [3H]-Diprenorphine % Inhibition of at 6 hours 7 mg/kg of test compound [1]: >40%

SMILES: NC(=O)c1ccc(Oc2ccc(CNCCc3cccc(F)c3)cc2)nc1 [Example 256, 6-(4-{[2-(3-Fluoro-phenyl)-ethylamino]-methyl}-phenoxy)-nicotinamide]
- Kb (mu opioid receptor (MOR)): 72 pM
- Kb [2]: 894 pM
- Kb [3]: 677 pM
- Ex Vivo Binding [3H]-Diprenorphine % Inhibition of at 6 hours 7 mg/kg of test compound [1]: 40%

SMILES: CC(C)(C)CCNCc1ccc(Oc2ccc(C(N)=O)cn2)cc1 [Example 263, 6-{4-[(3,3-Dimethyl-butylamino)-methyl]-phenoxy}-nicotinamide]
- minimal effective dose (Diet Induced Obese Rat): ≤ 3 mg/kg
- Energy Balance Diet Induced Obese Rat (Diet Induced Obese Rat): -56 kcal/kg/day
- Ex Vivo Binding [3H]-Diprenorphine % Inhibition of at 6 hours 7 mg/kg of test compound [1]: 62%

SMILES: CC(C)CCNCc1ccc(Oc2ccc(C(N)=O)cn2)cc1 [Example 271, 6-{4-[(3-Methyl-butylamino)-methyl]-phenoxy}-nicotinamide]
- Kb (mu opioid receptor (MOR)): 200 pM
- Kb [2]: 400 pM
- Kb [3]: 4400 pM
- minimal effective dose (Diet Induced Obese Rat): 0.3 mg/kg
- Energy Balance Diet Induced Obese Rat (Diet Induced Obese Rat): -35 kcal/kg/day
- Ex Vivo Binding [3H]-Diprenorphine % Inhibition of at 6 hours 7 mg/kg of test compound [1]: >40%

SMILES: NC(=O)c1ccc(Oc2ccc(CNCCC3CCCCC3)cc2)nc1 [Example 272, 6-{4-[(2-Cyclohexyl-ethylamino)-methyl]-phenoxy}-nicotinamide]
- Ex Vivo Binding [3H]-Diprenorphine % Inhibition of at 6 hours 7 mg/kg of test compound [1]: 79%

SMILES: NC(=O)c1ccc(Oc2ccc(CNCCc3ccc(F)cc3)cc2)cc1 [Example 294, 4-(4-{[2-(4-Fluoro-phenyl)-ethylamino]-methyl}-phenoxy)-benzamide]
- Ex Vivo Binding [3H]-Diprenorphine % Inhibition of at 6 hours 7 mg/kg of test compound [1]: 50%

SMILES: NC(=O)c1ccc(Oc2ccc(CNCCC3CCCC3)cc2)nc1 [Example 309, 6-{4-[(2-Cyclopentyl-ethylamino)-methyl]-phenoxy}-nicotinamide]
- minimal effective dose (Diet Induced Obese Rat): ≤ 3 mg/kg
- Energy Balance Diet Induced Obese Rat (Diet Induced Obese Rat): -39 kcal/kg/day
- Ex Vivo Binding [3H]-Diprenorphine % Inhibition of at 6 hours 7 mg/kg of test compound [1]: >60%

SMILES: CCCCCNCc1ccc(Oc2ccc(C(N)=O)nc2)c(F)c1 [Example 405, 5-(2-Fluoro-4-pentylaminomethylphenoxy)pyridine-2-carboxamide]
- Ex Vivo Binding [3H]-Diprenorphine % Inhibition of at 6 hours 7 mg/kg of test compound [1]: 55%

SMILES: CCCCCNCc1ccc(Oc2ccc(C(N)=O)cn2)c(OC)c1 [Example 420, 6-(2-Methoxy-4-pentylaminomethylphenoxy)nicotinamide]
- Ex Vivo Binding [3H]-Diprenorphine % Inhibition of at 6 hours 7 mg/kg of test compound [1]: 75%

SMILES: COc1cc(CNCCc2ccccc2F)ccc1Oc1ccc(C(N)=O)cn1 [Example 431, 6-(4-{[2-(2-fluorophenyl)ethylamino]methyl}-2-methoxyphenoxy)nicotinamide]
- Ex Vivo Binding [3H]-Diprenorphine % Inhibition of at 6 hours 7 mg/kg of test compound [1]: 54%

SMILES: COc1cc(CNCCC(C)(C)C)ccc1Oc1ccc(C(N)=O)cn1.CS(=O)(=O)O [Example 446, 6-{4-[(3,3-Dimethylbutylamino)methyl]-2-methoxyphenoxy}nicotinamide methanesulfonate]
- Ex Vivo Binding [3H]-Diprenorphine % Inhibition of at 6 hours 7 mg/kg of test compound [1]: 55%

SMILES: NC(=O)c1ccc(Oc2ccc3c(c2)CCCN(CCc2ccccc2)C3)nc1 [Example 447, 6-(2-Phenethyl-2,3,4,5-tetrahydro-1H-benzo[c]azepin-7-yloxy)nicotinamide]
- Ex Vivo Binding [3H]-Diprenorphine % Inhibition of at 6 hours 7 mg/kg of test compound [1]: 62%

SMILES: NC(=O)c1ccc(Oc2ccc(CCNCc3ccccc3)cc2Cl)nc1 [Example 475, 6-[4-(2-Benzylamino-ethyl)-2-chloro-phenoxy]-nicotinamide]
- Kb (mu opioid receptor (MOR)): 843 pM
- Kb [2]: 7860 pM
- Kb [3]: 17500 pM

SMILES: Cc1ccccc1CNCCc1ccc(Oc2ccc(C(N)=O)cn2)c(Cl)c1 [Example 476, 6-{2-Chloro-4-[2-(2-methyl-benzylamino)-ethyl]-phenoxy}-nicotinamide]
- Kb (mu opioid receptor (MOR)): 281 pM
- Kb [2]: 3380 pM
- Kb [3]: 8900 pM

SMILES: NC(=O)c1ccc(Oc2ccc(CCNCc3cccc(F)c3)cc2Cl)nc1 [Example 478, 6-{2-Chloro-4-[2-(3-fluoro-benzylamino)-ethyl]-phenoxy}-nicotinamide]
- Kb (mu opioid receptor (MOR)): 410 pM
- Kb [2]: 4500 pM
- Kb [3]: 5780 pM

SMILES: NC(=O)c1ccc(Oc2ccc(CCNCc3cccc(Cl)c3)cc2Cl)nc1 [Example 479, 6-{2-Chloro-4-[2-(3-chloro-benzylamino)-ethyl]-phenoxy}-nicotinamide]
- Kb (mu opioid receptor (MOR)): 503 pM
- Kb [2]: 6860 pM
- Kb [3]: 30100 pM

SMILES: CC(C)(C)CCNCc1ccc(Oc2ccc(C(N)=O)cn2)c(Cl)c1 [Example 481, 6-{2-Chloro-4-[(3,3-dimethylbutylamino)-methyl]-phenoxy}-nicotinamide]
- Ex Vivo Binding [3H]-Diprenorphine % Inhibition of at 6 hours 7 mg/kg of test compound [1]: 83%

SMILES: CC(C)CCN(Cc1ccc(Oc2ccc(C(N)=O)cn2)c(F)c1)CC1CCCCC1 [Example 671, 6-[4-((3-Methyl-butyl), cyclohexylmethylaminomethyl)-2-fluorophenoxy]nicotinonamide]
- melting point: 110 to 111 °C

SMILES: NC(=O)c1ccc(Oc2ccc(CNCC3CC3)cc2F)nc1 [Example 673, 6-[4-(Cyclopropylmethylaminomethyl)-2-fluorophenoxy]nicotinonamide]
- melting point: 128 to 129 °C

SMILES: O=C1CC[C@@]2(O)[C@H]3Cc4ccc(O)c5c4[C@@]2(CCN3CC2CC2)[C@H]1O5 [Naltrexone ®, Naltrexone HCl, reference compound]
- minimal effective dose (Diet Induced Obese Rat): > 10 mg/kg
- Energy Balance Diet Induced Obese Rat (Diet Induced Obese Rat): Not significant
- Ex Vivo Binding [3H]-Diprenorphine % Inhibition of at 6 hours 7 mg/kg of test compound [1]: <40%
